The values that follow are results of earlier work, collected in patent publication US20020103139A1, “Solid self-emulsifying controlled release drug delivery system composition for enhanced delivery of water insoluble phytosterols and other hydrophobic natural compounds for body weight and cholestrol level control” (priority 2000, published 2002).

Each structure is given as a SMILES string.

The conditions of data set [1]: doses of 700 and 300 mg.
The conditions of data set [2]: treated patients versus placebo.

With `CC[C@H](CC[C@@H](C)[C@H]1CC[C@H]2[C@@H]3CC[C@H]4C[C@@H](O)CC[C@]4(C)[C@H]3CC[C@]12C)C(C)C` [sitostanol], the “difference in cholesterol reduction between doses” value in data set [1] is “No significant difference”.

In the case of `CCNC(C)Cc1cccc(C(F)(F)F)c1` (stereo not drawn) [fenfluramine], the “average weight lost more than with placebo” value in data set [2] is recorded as 5 pounds. Regarding `CCN[C@@H](C)Cc1cccc(C(F)(F)F)c1` [dexfenfluramine], in data set [2], the “average weight lost more than with placebo” value was 5 pounds.
